± gives the uncertainty stated by the source.
Assay: xn = mol fraction of the nth substance listed
Settings: 101 kPa

C[N+](C)(C)C.NCC(=O)[O-] + OCC(O)CO
303 K
Settings	viscosity [mPa·s]
x1 = 0.065	397.5 ± 28
x1 = 0.13	390.8 ± 27
x1 = 0.21	380.1 ± 26
x1 = 0.29	369.3 ± 24
x1 = 0.48	346.5 ± 22
x1 = 0.71	327.7 ± 20

C[N+](C)(C)C.NCC(=O)[O-] + OCCO
303 K
Settings	viscosity [mPa·s]
x1 = 0.044	46.5 ± 1.7
x1 = 0.095	75.2 ± 3
x1 = 0.15	103.9 ± 4.4
x1 = 0.22	138 ± 6.3
x1 = 0.39	185.9 ± 9.3
x1 = 0.63	251.5 ± 14

CCCOCCO + OCCOCCO
Settings	viscosity [mPa·s]
293.15 K, x1 = 0.0522	34.91 ± 0.39
293.15 K, x1 = 0.1049	31.33 ± 0.36
293.15 K, x1 = 0.2035	25.38 ± 0.3
293.15 K, x1 = 0.2926	20.65 ± 0.24
293.15 K, x1 = 0.3996	15.84 ± 0.18
293.15 K, x1 = 0.4555	13.73 ± 0.15
293.15 K, x1 = 0.4975	12.32 ± 0.13
293.15 K, x1 = 0.5488	10.8 ± 0.11
293.15 K, x1 = 0.5924	9.666 ± 0.097
293.15 K, x1 = 0.7043	7.291 ± 0.076
293.15 K, x1 = 0.7921	5.699 ± 0.058
293.15 K, x1 = 0.9015	3.905 ± 0.04
293.15 K, x1 = 0.9536	3.147 ± 0.031
298.15 K, x1 = 0.053	26.82 ± 0.34
298.15 K, x1 = 0.1014	24.15 ± 0.31
298.15 K, x1 = 0.1985	19.48 ± 0.26
298.15 K, x1 = 0.3104	15.16 ± 0.2
298.15 K, x1 = 0.4057	12.25 ± 0.16
298.15 K, x1 = 0.4511	11.07 ± 0.14
298.15 K, x1 = 0.4975	9.977 ± 0.12
298.15 K, x1 = 0.5511	8.842 ± 0.11
298.15 K, x1 = 0.6049	7.816 ± 0.095
298.15 K, x1 = 0.6981	6.239 ± 0.073
298.15 K, x1 = 0.8017	4.717 ± 0.056
298.15 K, x1 = 0.89	3.562 ± 0.037
298.15 K, x1 = 0.9483	2.89 ± 0.03
303.15 K, x1 = 0.0608	19.27 ± 0.31
303.15 K, x1 = 0.1099	17.35 ± 0.28
303.15 K, x1 = 0.1927	14.48 ± 0.22
303.15 K, x1 = 0.3017	11.38 ± 0.17
303.15 K, x1 = 0.3982	9.174 ± 0.14
303.15 K, x1 = 0.4498	8.171 ± 0.13
303.15 K, x1 = 0.4916	7.433 ± 0.12
303.15 K, x1 = 0.5511	6.487 ± 0.11
303.15 K, x1 = 0.6073	5.701 ± 0.093
303.15 K, x1 = 0.7083	4.5 ± 0.073
303.15 K, x1 = 0.7941	3.671 ± 0.052
303.15 K, x1 = 0.9072	2.776 ± 0.036
303.15 K, x1 = 0.9353	2.579 ± 0.028

CCCOCCO + OCCOCCOCCO
Settings	viscosity [mPa·s]
293.15 K, x1 = 0.0477	37.18 ± 0.36
293.15 K, x1 = 0.1028	32.98 ± 0.32
293.15 K, x1 = 0.2026	26.12 ± 0.26
293.15 K, x1 = 0.3116	19.86 ± 0.19
293.15 K, x1 = 0.397	15.84 ± 0.14
293.15 K, x1 = 0.4561	13.47 ± 0.12
293.15 K, x1 = 0.4963	12.06 ± 0.11
293.15 K, x1 = 0.549	10.39 ± 0.093
293.15 K, x1 = 0.5885	9.266 ± 0.082
293.15 K, x1 = 0.6941	6.794 ± 0.064
293.15 K, x1 = 0.8011	4.892 ± 0.047
293.15 K, x1 = 0.9015	3.544 ± 0.033
293.15 K, x1 = 0.9316	3.208 ± 0.029
298.15 K, x1 = 0.0552	30.77 ± 0.3
298.15 K, x1 = 0.1173	26.96 ± 0.27
298.15 K, x1 = 0.2033	22.23 ± 0.21
298.15 K, x1 = 0.3039	17.54 ± 0.16
298.15 K, x1 = 0.4049	13.68 ± 0.12
298.15 K, x1 = 0.4555	12.02 ± 0.11
298.15 K, x1 = 0.5186	10.2 ± 0.092
298.15 K, x1 = 0.5413	9.595 ± 0.084
298.15 K, x1 = 0.591	8.373 ± 0.073
298.15 K, x1 = 0.6905	6.309 ± 0.055
298.15 K, x1 = 0.7968	4.592 ± 0.041
298.15 K, x1 = 0.8962	3.38 ± 0.031
298.15 K, x1 = 0.9323	3.003 ± 0.028
303.15 K, x1 = 0.0529	26.52 ± 0.26
303.15 K, x1 = 0.1142	23.47 ± 0.22
303.15 K, x1 = 0.2041	19.36 ± 0.18
303.15 K, x1 = 0.2979	15.66 ± 0.14
303.15 K, x1 = 0.4027	12.28 ± 0.11
303.15 K, x1 = 0.4522	10.91 ± 0.097
303.15 K, x1 = 0.4952	9.838 ± 0.085
303.15 K, x1 = 0.5507	8.582 ± 0.075
303.15 K, x1 = 0.5939	7.697 ± 0.066
303.15 K, x1 = 0.6941	5.899 ± 0.051
303.15 K, x1 = 0.7987	4.346 ± 0.038
303.15 K, x1 = 0.9027	3.083 ± 0.028
303.15 K, x1 = 0.9431	2.664 ± 0.025

Source: the CheMixHub viscosity set
